Among the data in US5635527A, “Carboxylic acid compound having condensed ring, salt thereof and pharmaceutical use thereof” (The Green Cross Corporation, priority 1994, dated 1997) are IC50 values, retold here.

The test has as its system human platelets. Nature of the test: suppressive activity on ADP aggregation of human platelets. In kind it is cell-based. The following applies: platelet rich plasma, ADP 1-5 μM, compound added 2 minutes before ADP, read-out: Suppression of platelet aggregation (IC50). Here is the method: Determination of suppressive activity on ADP aggregation of human platelets
Platelet rich plasma was prepared from the blood taken from healthy humans by centrifugation in the presence of 0.38% sodium citrate, and used for the determination.
Two minutes after the test compounds shown in Table 1 were added to the above-mentioned platelet rich plasma, ADP (adenosine-5'-diphosphate) (1-5 μM) having a concentration at which primary aggregation alone is observed was added, and the suppression of ADP aggregation by the compounds was evaluated. The percent suppression was determined by varying the concentration of the compounds and the concentration of the compound at which the aggregation was suppressed by 50% (IC50) was calculated, which was taken as the activity of the compound.
One may read the IC50 as the concentration that inhibits the measured activity by half. Consider `N=C(N)c1cnc2oc(C(=O)Nc3ccc(OCC(=O)O)cc3)cc2c1` [Compound 239, 4-(5-Amidinofuro[2,3-b]pyridine-2-carbonylamino)-phenoxyacetic acid], for which the IC50 was 10 nM. Next, `N=C(N)c1cnc2oc(C(=O)Nc3ccc(OCC(=O)O)nc3)cc2c1` [Compound 246, 5-(5-Amidinofuro[2,3-b]pyridine-2-carbonylamino)-2-pyridyloxyacetic acid]: 30 nM; `N=C(N)c1cnc2oc(C(=O)N[C@H]3CC[C@H](OCC(=O)O)CC3)cc2c1` [Compound 255, trans-[4-(5-Amidinofuro[2,3-b]pyridine-2-carbonylamino)-cyclohexyloxy]acetic acid]: 20 nM; `N=C(N)c1cnc2oc(C(=O)N[C@H]3CC[C@H](CCC(=O)O)CC3)cc2c1` [Compound 261, trans-3-[4-(5-Amidinofuro[2,3-b]pyridine-2-carbonylamino)cyclohexyl]propionic acid]: 10 nM.
